Measured values from patent publication US6596720B1, “Anti-HIV compositions” (priority 1999, dated 2003).

Columns and labels:
HIV GUN-1 strain [1] = assay: Antiviral activity against HIV GUN-1 strain in C8166 cells (syncytia count); type: cell-based; conditions: HIV GUN-1, C8166 cells, MOI 0.25, 2 days
Method: Antiviral Activity Against HIV GUN-1 Strain in C8166 Cells (Salahuddinn et al., Virology, vol. 129, 51-64(1983))
C8166 cells were transferred to RPMI 1640 medium (supplemented with 10% FCS) at 2×10^5 cells/ml. […] The cells were cultured at 37° C. One hour later, the cells were infected with HIV at multiplicity of infection (MOI) of 0.25 (MOI=0.25) and cultured at 37° C. for 2 days. Then the number of syncytia induced by HIV infection was determined.
Relative infection rate (%), expressed as a percentage, was calculated from the number of HIV-infected cells in the test drug-treated group relative to the number of HIV-infected cells in the drug-free solution-treated group as a control group, by the following equation:
Relative infection rate (%)=(N5/N6)×100
in which N5 is the number of syncytia in the test drug-treated group, and N6 is the number of syncytia in the control group.

MT-4 cells = assay: Cytotoxicity against MT-4 cells (trypan blue exclusion); type: cell-based; conditions: 2 days, relative to control group
Method: (§1) Cytotoxicity Against MT-2 Cells and MT-4 Cells
(§2) MT-2 cells and MT-4 cells were transferred to RPMI 1640 medium (supplemented with 10% FCS) at 2×10^5 cells/ml. […] The cells were cultured at 37° C. Two days later, the trypan blue exclusion test was carried out and the number of living cells in each group was counted.
(§3) Relative survival rate (%), expressed as a percentage, was calculated from the number of living cells in the test drug-treated group relative to the number of living cells in the drug-free solution-treated group as a control group, by the following equation:
(§4) Relative survival rate (%)=(N3/N4)×100
(§5) in which N3 is the number of living cells in the test drug-treated group, and N4 is the number of living cells in the control group.

HIV IIIB strain [2] = assay: Antiviral activity against HIV IIIB strain in MT-2 cells (fluorescent antibody assay); type: cell-based; conditions: MOI 0.05, 2 days
Method: (§6) Antiviral activity against HIV GUN-1 strain (Jpn. J. Cancer Res., vol. 78, 11-15(1987)) and HIV IIIB strain (Science, vol. 224, 497-500(1984)) in MT-2 cells and MT-4 cells (Nature, vol. 294, 770-771 (1981))
(§7) MT-2 cells and MT-4 cells were transferred to RPMI 1640 medium (supplemented with 10% fetal calf serum (FCS)) at 2×10^5 cells/ml. […] The cells were cultured at 37° C. One hour later, the cells were infected with HIV at multiplicity of infection of 0.05 (MOI=0.05) and cultured at 37° C. for 2 days. Smears of MT-2 cells and MT-4 cells were prepared and assayed for HIV-positive cells by fluorescent antibody assay (Science, vol. 229, 563(1985)). 3′-Azide-3′-deoxythymidine (hereinafter abbreviated as AZT) was used as a positive control.
(§8) The relative infection rate (%), expressed as a percentage, was calculated from the number of HIV-infected cells in the drug-treated group relative to the number of infected cells in the drug-free solution-treated group as a control group by the following equation:
(§9) Relative infection rate (%)=(N1/N2)×100
(§10) in which N1 is the number of HIV-positive cells in the test drug-treated group, and N2 is the number of HIV-positive cells in the control group.

MT-2 cells = assay: Cytotoxicity against MT-2 cells (trypan blue exclusion); type: cell-based; conditions: 2 days, relative to control group
Method: as §1, §2, §3, §4, §5

HIV GUN-1 strain [3] = assay: Antiviral activity against HIV GUN-1 strain in MT-2 cells (fluorescent antibody assay); type: cell-based; conditions: HIV GUN-1, MT-2 cells, MOI 0.05, 2 days
Method: as §6, §7, §8, §9, §10

HIV IIIB strain [4] = assay: Antiviral activity against HIV IIIB strain in MT-4 cells (fluorescent antibody assay); type: cell-based; conditions: MOI 0.05, 2 days
Method: as §6, §7, §8, §9, §10

HIV GUN-1 strain [5] = assay: Antiviral activity against HIV GUN-1 strain in MT-4 cells (fluorescent antibody assay); type: cell-based; conditions: HIV GUN-1, MT-4 cells, MOI 0.05, 2 days
Method: as §6, §7, §8, §9, §10

## Cl.N=C1CCCN1Cc1[nH]c(=O)[nH]c(=O)c1Cl [Compound 1, 5-Chloro-6-(2-iminopyrrolidin-1-yl)methyl-2,4(1H,3H)-pyrimidinedione Hydrochloride]
SD rats; SD rats, FTD + compound 1 versus FTD alone
  Change of the maximum tolerated dose of FTD by compound 1: approximately tripled
Beagle dogs; beagle dogs, FTD + compound 1 versus FTD alone
  Change of the maximum tolerated dose of FTD by compound 1: approximately tripled

## O=c1[nH]c(=O)n([C@H]2C[C@H](O)[C@@H](CO)O2)cc1C(F)(F)F [FTD, trifluridine]
SD rats; male SD rats, oral, repeated for 14 days, combination molar ratio FTD/compound 1=1/0.5
  Maximum tolerated dose (causing no death, expressed as FTD dose): 150 mg/kg
Beagle dogs; male beagle dogs, oral, repeated for 14 days, combination molar ratio FTD/compound 1=1/0.5
  Maximum tolerated dose (causing no death, expressed as FTD dose): 6 mg/kg
HIV GUN-1 strain [1]; FTD 0.01 μg/ml
  Infection rate (%): 90%
HIV GUN-1 strain [1]; FTD 0.1 μg/ml
  Infection rate (%): 59%
HIV GUN-1 strain [1]; FTD 1 μg/ml
  Infection rate (%): 2%
HIV GUN-1 strain [1]; FTD 10 μg/ml
  Infection rate (%): 0%
HIV GUN-1 strain [1]; FTD 100 μg/ml
  Infection rate (%): 0%
HIV GUN-1 strain [1]; FTD 1000 μg/ml
  Infection rate (%): 0%

## Cc1cn([C@H]2C[C@H](N=[N+]=[N-])[C@@H](CO)O2)c(=O)[nH]c1=O [AZT, 3′-Azide-3′-deoxythymidine]
MT-4 cells; drug 10 μg/ml
  Relative survival rate (%): 100%
MT-4 cells; drug 100 μg/ml
  Relative survival rate (%): 100%
MT-4 cells; drug 1000 μg/ml
  Relative survival rate (%): 84%
HIV IIIB strain [2]; drug 0.001 μg/ml
  Relative infection rate (%): 100%
HIV IIIB strain [2]; drug 0.01 μg/ml
  Relative infection rate (%): 20%
HIV IIIB strain [2]; drug 0.1 μg/ml
  Relative infection rate (%): 10%
HIV IIIB strain [2]; drug 1 μg/ml
  Relative infection rate (%): 0%
HIV IIIB strain [2]; drug 10 μg/ml
  Relative infection rate (%): 0%
HIV IIIB strain [2]; drug 100 μg/ml
  Relative infection rate (%): 0%
HIV IIIB strain [2]; drug 1000 μg/ml
  Relative infection rate (%): 0%
MT-2 cells; drug 10 μg/ml
  Relative survival rate (%): 100%
MT-2 cells; drug 100 μg/ml
  Relative survival rate (%): 100%
MT-2 cells; drug 1000 μg/ml
  Relative survival rate (%): 100%
HIV GUN-1 strain [3]; drug 0.001 μg/ml
  Relative infection rate (%): 100%
HIV GUN-1 strain [3]; drug 0.01 μg/ml
  Relative infection rate (%): 30%
HIV GUN-1 strain [3]; drug 0.1 μg/ml
  Relative infection rate (%): 10%
HIV GUN-1 strain [3]; drug 1 μg/ml
  Relative infection rate (%): 0%
HIV GUN-1 strain [3]; drug 10 μg/ml
  Relative infection rate (%): 0%
HIV GUN-1 strain [3]; drug 100 μg/ml
  Relative infection rate (%): 0%
HIV GUN-1 strain [3]; drug 1000 μg/ml
  Relative infection rate (%): 0%
HIV IIIB strain [4]; drug 0.001 μg/ml
  Relative infection rate (%): 100%
HIV IIIB strain [4]; drug 0.01 μg/ml
  Relative infection rate (%): 25%
HIV IIIB strain [4]; drug 0.1 μg/ml
  Relative infection rate (%): 5%
HIV IIIB strain [4]; drug 1 μg/ml
  Relative infection rate (%): 0%
HIV IIIB strain [4]; drug 10 μg/ml
  Relative infection rate (%): 0%
HIV IIIB strain [4]; drug 100 μg/ml
  Relative infection rate (%): 0%
HIV IIIB strain [4]; drug 1000 μg/ml
  Relative infection rate (%): 0%
HIV GUN-1 strain [5]; drug 0.001 μg/ml
  Relative infection rate (%): 100%
HIV GUN-1 strain [5]; drug 0.01 μg/ml
  Relative infection rate (%): 40%
HIV GUN-1 strain [5]; drug 0.1 μg/ml
  Relative infection rate (%): 4%
HIV GUN-1 strain [5]; drug 1 μg/ml
  Relative infection rate (%): 0%
HIV GUN-1 strain [5]; drug 10 μg/ml
  Relative infection rate (%): 0%
HIV GUN-1 strain [5]; drug 100 μg/ml
  Relative infection rate (%): 0%
HIV GUN-1 strain [5]; drug 1000 μg/ml
  Relative infection rate (%): 0%
